# Measurements reported in patent US5607691A, “Compositions and methods for enhanced drug delivery” (priority 1995, dated 1997).
# Counter-ions that a name gives are not always drawn. Like-named read-outs stand apart in the source and are kept apart here.
# Experiment: in vitro
# Type: in vitro ADME, human
# From the text: Table 4 lists the serum half-lives for several model compounds and two representative pharmaceutical agent-chemical modifier complexes using an in vitro assay system described in the Experimental section below. Of course, the serum half-lives will vary in vivo depending upon the age and health condition of the patient. Each complex comprises a model compound or a pharmaceutical agent, a spacer group, and a chemical modifier. Many of the model compounds utilize 4-nitrophenyl(ethanol, propanol, or cyclohexanol) or 4-nitrophenylethylamine as the "model" pharmaceutical agent. A more complete listing of serum half-lives may be found in the Experimental section below.
# General procedure for serum hydrolysis of pharmaceutical agent-modifier complexes
# Stock solutions (6 mM) of the pharmaceutical agent-modifier complexes were prepared in ethanol (by vortexing, sonication or warming at 37° C. if necessary). If required for solubility, a drop of dimethylsulfoxide, dimethylformamide or methanol may be added. (Acetonitrile cannot be used because it deactivates the serum enzymes.)
# HPLC separation methods were established for each study by dilution of the above stock solution (6 μl) in acetonitrile (1 ml) to give a 36 μM solution. Samples (10 μl) were injected onto a Nucleosil 5C8 (250×4 mmID) and guard column (11×4 mm ID) and eluted with a mobile phase of approximately 65% HPLC grade water and 35% of a solution of 0.1% trifluoroacetic acid in acetonitrile, the exact proportions being adjusted in each case to give optimum separation and run times.
# Freshly defrosted human serum (3 ml, Sigma) was warmed at 37° C. for five minutes and then 60 μl of the agent-modifier complex stock solution was added with vortexing. […] The aliquots were added to 800 μl of 2% zinc sulfate solution in a 1.5 ml disposable microcentrifuge tube, vortexed immediately and centrifuged at 14,000 RPM for 3 minutes. The supernatants (10 μl) were then injected onto the HPLC and peak areas were used to determine the % remaining. Serum blanks were prepared similarly by addition of serum to the zinc sulfate solution followed by centrifugation, and time=0 samples were also prepared by adding serum to the zinc sulfate solution followed by addition of the complex and separation by centrifugation. The time=0 samples, as well as the original stock solutions, were also used to study the stability of the complex in the absence of enzyme. Half-lives were calculated using the equation
# by plotting time (x) vs. ln % remaining (y) to obtain the slope (m) and the y intercept (b).
# [1] = human, serum, Table 5, human serum, 37° C., read-out: Serum Half-life (converted)
# [2] = human, serum, Table 4, human serum, 37° C., read-out: In vitro Half-Life (converted)
# [3] = human, serum, Table 4, read-out: serum half-life (converted)
Molecule,half-life [1],further results
2-(4-nitrophenyl)ethylamine choline chloride carbamate,,"In vitro Half-Life (human, serum): 86 h; Serum Half-life (human, serum): 86 h"
"COC(=O)CC(CN(C)C)OC(=O)Cc1c(C)n(C(=O)c2ccc(Cl)cc2)c2ccc(OC)cc12 (racemic) [3-O-(indomethacinoyl)-D,L-norcarnitine methyl ester]",257 min,"Serum Half-life (Table 5, human serum, 37° C., listed as O-indomethacinyl-(D,L-norcarnitine methyl ester)): 4.3 h"
"COC(=O)CC(C[N+](C)(C)C)OC(=O)Cc1c(C)n(C(=O)c2ccc(Cl)cc2)c2ccc(OC)cc12 (racemic) [O-indomethacinyl-(D,L-carnitine methyl ester), iodide salt]",660 min,
"COc1cc(NC(=O)OCC[N+](C)(C)C)c(Cl)cc1C(=O)N[C@H]1CCN(CCCOc2ccc(F)cc2)C[C@H]1OC (relative stereo) [cisapride choline carbamate, chloride salt]",150 min,
"COc1cc(NC(=O)c2ccc[n+](C)c2)c(Cl)cc1C(=O)N[C@H]1CCN(CCCOc2ccc(F)cc2)C[C@H]1OC (relative stereo) [cisapride-(N-(1-methylpyridinium-3-carboxamide), chloride salt]",60 min,
"COc1cc(N)c(Cl)cc1C(=O)N[C@H]1CC[N+](CCCOc2ccc(F)cc2)(COC(=O)CCCCC[N+](C)(C)C)C[C@H]1OC (relative stereo) [cisapride-N-(6-trimethylammoniohexanoyloxymethylammonio), diiodide salt]",60 min,
"COc1cc(N)c(Cl)cc1C(=O)N[C@H]1CC[N+](CCCOc2ccc(F)cc2)(COC(C)=O)C[C@H]1OC (relative stereo) [cisapride-N-acetoxymethylammonio, iodide salt]",6.5 min,
"CCCC(=O)OC[N+]1(CCCOc2ccc(F)cc2)CC[C@H](NC(=O)c2cc(Cl)c(N)cc2OC)[C@H](OC)C1 (relative stereo) [cisapride-N-butyroyloxymethylammonio, iodide salt]",7.6 min,
"CCOC(=O)OC[N+]1(CCCOc2ccc(F)cc2)CC[C@H](NC(=O)c2cc(Cl)c(N)cc2OC)[C@H](OC)C1 (relative stereo) [cisapride-N-ethyoxycarbonyloxymethylammonio, iodide salt]",4.4 min,
"CCCCCCCCCCCC(=O)OC[N+]1(CCCOc2ccc(F)cc2)CC[C@H](NC(=O)c2cc(Cl)c(N)cc2OC)[C@H](OC)C1 (relative stereo) [cisapride-N-lauroyloxymethylammonio, iodide salt]",5.4 min,
CC(=O)O[C@H](CC(=O)NCCCCCC(=O)OC(C)Cc1ccc([N+](=O)[O-])cc1)C[N+](C)(C)C (stereo partly drawn) [1-(4-nitrophenyl)-2-propanol 6-(O-acetyl-L-carnitinamido)hexanoate ester],21.4 min,half-life [2]: 21.4 min; half-life [3]: 21.4 min
"CC(=O)O[C@H](CC(=O)NCCCCCCOC(=O)OC(C)Cc1ccc([N+](=O)[O-])cc1)C[N+](C)(C)C (stereo partly drawn) [1-(4-nitrophenyl)-2-propanol 6-(O-acetyl-L-carnitinamido)hexanol carbonate, chloride salt]",3.5 min,half-life [2]: 3.5 min
"CC(=O)O[C@H](CC(=O)NCCCCCC(=O)OCCc1ccc([N+](=O)[O-])cc1)C[N+](C)(C)C [2-(4-Nitrophenyl)ethanol 6-(O-acetyl-L-carnitinamido)hexanoate ester, chloride salt]",0.132 min,half-life [2]: 0.132 min; half-life [3]: 0.132 min
O=C(OCCc1ccc([N+](=O)[O-])cc1)c1ccc(N2CCOCC2)cc1 [2-(4-nitrophenyl)ethanol 4-morpholino benzoate],,"In vitro Half-Life (human, serum): 0.0127 h"
O=C(OCCc1ccc([N+](=O)[O-])cc1)c1ccc(CN2CCOCC2)cc1 [2-(4-nitrophenyl)ethanol 4-morpholinomethyl-benzoate],0.762 min,
O=C(CCCCCN1CCOCC1)OCCc1ccc([N+](=O)[O-])cc1 [2-(4-nitrophenyl)ethanol 6-morpholino-hexanoate],0.463 min,half-life [2]: 0.463 min
C[N+](C)(C)CCOC(=O)OCCc1ccc([N+](=O)[O-])cc1 [2-(4-nitrophenyl)ethanol choline chloride carbonate ester],< 0.0333 min,half-life [2]: < 0.0333 min
CC(=O)O[C@H](CC(=O)NCCC(=O)OCCc1ccc([N+](=O)[O-])cc1)C[N+](C)(C)C [2-(4-nitrophenyl)ethyl 3-(O-acetyl-L-carnitinamido)propanoate],5.5 min,half-life [2]: 5.5 min; half-life [3]: 5.5 min

Molecule,half-life [1],further results
"CC(=O)O[C@H](CC(=O)NCCc1ccc([N+](=O)[O-])cc1)C[N+](C)(C)C [2-(4-nitrophenyl)ethylamine 3-(O-acetyl)-L-carnitine amide, chloride salt]",1570 min,half-life [2]: 1570 min
"C[C@]12CC[C@@H]3c4ccc(OC(=O)OCC[N+](C)(C)C)cc4CC[C@H]3[C@@H]1CC[C@@H]2O [3,17β-estradiol-3-choline carbonate, iodide salt]",1.53 min,
"C[C@]12CC[C@@H]3c4ccc(O)cc4CC[C@H]3[C@@H]1CC[C@@H]2OC(=O)C[N+](C)(C)C [3,17β-estradiol-17β-betaine ester, chloride salt]",270 min,
"C[C@]12CC[C@@H]3c4ccc(O)cc4CC[C@H]3[C@@H]1CC[C@@H]2OC(=O)OCC[N+](C)(C)C [3-hydroxy-17β-estra-trienyl N,N,N-trimethylaminoethyl carbonate, iodide salt]",16 min,
"CC(=O)O[C@H](CC(=O)OCCCCCCOC(=O)O[C@H]1CC[C@H]2[C@@H]3CCc4cc(O)ccc4[C@H]3CC[C@]12C)C[N+](C)(C)C [3-hydroxy-estra-1,3,5-trien-17β-yl 6-(O-acetyl-L-carnitinato)hexyl carbonate, chloride salt]",,half-life [2]: 240 min
"C[N+](C)(C)CCOC(=O)OC1CCC(c2ccc([N+](=O)[O-])cc2)CC1 (stereo not drawn) [4-(4-nitrophenyl)cyclohexanol choline carbonate ester, iodide salt]",0.327 min,half-life [2]: 0.327 min
"CCCC(=O)OCn1c(=O)c(F)cn(C(C)OC(=O)CCC[N+](C)(C)C)c1=O.[I-] (stereo not drawn) [5-fluorouracil-1-(4-trimethylammoniobutyroyl-1-oxyethyl)-3-(butyroyloxymethyl), iodide salt]",,"Serum Half-life (Table 5, human serum, 37° C.): 0.162 h"
"CCCC(=O)OCn1c(=O)c(F)cn(COC(=O)CCC[N+](C)(C)C)c1=O [5-fluorouracil-1-(4-trimethylammoniobutyroyloxymethyl)-3-(butyroyloxymethyl), iodide salt]",204 min,
"CCCCCCCCCCCC(=O)OCn1c(=O)c(F)cn(C(C)OC(=O)CCC[N+](C)(C)C)c1=O.[I-] (stereo not drawn) [5-fluorouracil-1-(N-(4-trimethylammoniobutyroyloxy-1-ethyl)-3-(N-lauroyloxymethyl), iodide salt]",,"Serum Half-life (Table 5, human serum, 37° C.): 0.217 h"
"CCCCCCCCCCCC(=O)OCn1c(=O)c(F)cn(COC(=O)CCC[N+](C)(C)C)c1=O [5-fluorouracil-1-(N-(4-trimethylammoniobutyroyloxymethyl)-3-(N-lauroxyoxymethyl), iodide salt]",192 min,
CCCCCCCCCCCC(=O)OCn1cc(F)c(=O)[nH]c1=O [5-fluorouracil-1-(lauroyloxmethyl)],3.23 min,
"CCCCCCCCCCCC(=O)OCn1cc(F)c(=O)n(COC(=O)CCC[N+](C)(C)C)c1=O [5-fluorouracil-1-(lauroyloxymethyl)-3-(4-trimethylammoniobutyroxyoxymethyl), iodide salt]",420 min,
"CCCCCCCCCCCC(=O)OCn1cc(F)c(=O)n(COC(=O)OCC[N+](C)(C)C)c1=O [5-fluorouracil-1-(lauroyloxymethyl)-3-(cholinecarbonyloxymethyl), iodide salt]",27 min,
CC(=O)O[C@H](CC(=O)Oc1ccc2c(c1)CC[C@@H]1[C@@H]2CC[C@]2(C)[C@@H](O)CC[C@@H]12)C[N+](C)(C)C [17β-estradiol-3-(O-acetyl-L-carnitine) ester],8 min,
CC(=O)O[C@H](CC(=O)O[C@H]1CC[C@H]2[C@@H]3CCc4cc(O)ccc4[C@H]3CC[C@]12C)C[N+](C)(C)C [17β-estradiol-17β-(O-acetyl-L-carnitine) ester],240 min,
"COc1ccc2c(c1)c(CC(=O)OCC[N+](C)(C)C)c(C)n2C(=O)c1ccc(Cl)cc1 [(indomethacinyl)choline iodide, indomethacinylcholine iodide]",< 1 min,
"C[C@]12CC[C@@H]3c4ccc(O)cc4CC[C@H]3[C@@H]1CC[C@@H]2OC(=O)NCC(=O)OCC[N+](C)(C)C [N-[3-hydroxy-estra-1,3,5(10-trien-17β-yl)oxycarbonyl] glycine (choline iodide) ester]",1.62 min,
